Several values for one entry are separate records, joined by “and”; a condition that tells them apart may be missing. Identical values can stand only once.
Legend:
Type in all cases: in vivo, Balb/c nude mice
[1] = metabolite analysis of plasma and urine by TLC; conditions: PC3- or LNCaP-xenograft animals
Description: (§1) 7.2. Organ distribution and Metabolite analysis.
After sacrificing the animals, the organs were dissected and measured in a γ-counter. The obtained CPM’s were normalized to %ID/g (Table shown in main text). For the metabolite analysis, urine and plasma samples were pipetted onto a TLC plate and run in a solution of 10 % MeCN in H2O and read out in an Amersham Typhoon (GE).Additionally to […]
metabolite analysis of two article, the image quantification based on the standardized different animals bearing a uptake value (SUV ) was performed. The obtained data PC3- or a LNCaP-xenograft. meanBW While in Plasma, no are represented in the following Table S6. Here, we show the metabolite were formed, the […]
results obtained by image quantification of the 4 different conclusive. groups. Comparison of tumor uptake in PSMA-expressing
LNCaP xenografts of (1) [68Ga]PSMA-11 and (2) [18F]PSMA-MIC01 (the same animals). (3) the PSMA-negative PC3 xenograft. (4) Confirmation of binding specificity of radiotracer [18F]PSMA-MIC01, by blocking PSMA in LNCaP-xenografts prior to radiotracer injection] using the potent PSMA-inhibitor 2-PMPA.
(§2) In order to check for the significant differences, we also checked for the Cohen’s d, a measurement to determine the effect size. It is calculated on the following formula:
(§3) Cohen′sD = Mean1− Mean2 . […]
(1 picture or pasted object on this page, not shown here)

PC3 (PSMA-) xenografts = assay: ex vivo organ distribution, PC3 xenograft mice; conditions: dissected after PET scan
Procedure: (§4) All groups were evaluated by visual assessment of the PET image and the percentage injected dose per gram (%ID g^−1).
(§5) The animal experiments were all performed according to the ethical guidelines and approved by the local animal welfare committee of the University of Groningen (IvD number 15166-06-001. All animals were caged separately in individually ventilated cages.
(§6) 7-12 week old immune deficient Balb/c nude mice were inoculated with 200 µL of a 1:1 suspension of medium containing approximately 4 x10^6 LNCaP cells (PSMA positive cells) or 5 x 10^6 PC3 cells (PSMA-negative cells) in RPMI-1640, and Matrigel Basement Membrane Matrix High concentration. The cells were subcutaneously inoculated on the right shoulder.
After 3 to 5 weeks for LNCaP-xenografts, 2-3 weeks for PC3-xenografts or when a tumor size of 1cm3 was reached, the animals were transported to the PET imaging facility. […]
(§7) Animals were anesthetized at 5 % isoflurane and maintained under 2 % isoflurane enriched with O2. The dynamic PET scan was started within 5 min after tracer injection with an acquisition time of 90 min. The static scan was performed 60 min after tracer injection with an acquisition time of 30 min.
as §1
(§8) After sacrificing the animals, the organs were dissected and measured in a γ-counter. The obtained CPM’s were normalized to %ID/g (Table shown in main text). […]
as §2, §3

LNCaP (PSMA+) xenografts = assay: ex vivo organ distribution, LNCaP xenograft mice
Procedure: as §4, §5, §6
After 3 to 5 weeks for LNCaP-xenografts, 2-3 weeks for PC3-xenografts or when a tumor size of 1cm3 was reached, the animals were transported to the PET imaging facility. For the […]
as §7, with “prepared and 100 µL were injected via penile vein injection 30 min prior to the tracer injection. Animals” for “Animals”
as §1, §8, §2, §3

[2] = LNCaP (PSMA+) xenograft blocked with 2-PMPA 30 min prior to tracer
[3] = LNCaP (PSMA+) xenograft, dissected after PET scan

- metabolites in plasma [1]: no
- ex vivo uptake bone (PC3 (PSMA-) xenografts): 0.5±0.2 %ID g^−1
- ex vivo uptake brain (PC3 (PSMA-) xenografts): 0.2±0.1 %ID g^−1
- ex vivo uptake heart (PC3 (PSMA-) xenografts): 1.0±0.6 %ID g^−1
- ex vivo uptake kidney (PC3 (PSMA-) xenografts): 39.8±28.8 %ID g^−1
- ex vivo uptake large intestine (PC3 (PSMA-) xenografts): 1.4±0.5 %ID g^−1
- ex vivo uptake liver (PC3 (PSMA-) xenografts): 9.4±2.9 %ID g^−1
- ex vivo uptake lungs (PC3 (PSMA-) xenografts): 2.1±1.1 %ID g^−1
- ex vivo uptake muscles (PC3 (PSMA-) xenografts): 0.6±0.3 %ID g^−1
- ex vivo uptake pancreas (PC3 (PSMA-) xenografts): 0.8±0.3 %ID g^−1
- ex vivo uptake plasma (PC3 (PSMA-) xenografts): 6.0±3.5 %ID g^−1
- ex vivo uptake salivary glands (PC3 (PSMA-) xenografts): 1.1±0.6 %ID g^−1
- ex vivo uptake small intestine (PC3 (PSMA-) xenografts): 1.3±0.6 %ID g^−1
- ex vivo uptake spleen (PC3 (PSMA-) xenografts): 3.1±1.4 %ID g^−1
- ex vivo uptake stomach (PC3 (PSMA-) xenografts): 1.2±0.6 %ID g^−1
- ex vivo uptake tumor (PC3 (PSMA-) xenografts): 3.0±1.8 %ID g^−1 and 3.0±1.7 %ID g^−1
- ex vivo uptake urine (PC3 (PSMA-) xenografts): 184±260 %ID g^−1
- ex vivo uptake whole blood (PC3 (PSMA-) xenografts): 3.4±1.8 %ID g^−1
- ex vivo uptake bone (LNCaP (PSMA+) xenografts; [2]): 0.3±0.1 %ID g^−1
- ex vivo uptake brain (LNCaP (PSMA+) xenografts; [2]): 0.1±0.0 %ID g^−1
- ex vivo uptake heart (LNCaP (PSMA+) xenografts; [2]): 0.7±0.5 %ID g^−1
- ex vivo uptake kidney (LNCaP (PSMA+) xenografts; [2]): 28.5±20.7 %ID g^−1
- ex vivo uptake large intestine (LNCaP (PSMA+) xenografts; [2]): 0.9±0.3 %ID g^−1
- ex vivo uptake liver (LNCaP (PSMA+) xenografts; [2]): 5.7±1.4 %ID g^−1
- ex vivo uptake lungs (LNCaP (PSMA+) xenografts; [2]): 1.1±0.3 %ID g^−1
- ex vivo uptake muscles (LNCaP (PSMA+) xenografts; [2]): 0.3±0.1 %ID g^−1
- ex vivo uptake pancreas (LNCaP (PSMA+) xenografts; [2]): 0.5±0.2 %ID g^−1
- ex vivo uptake plasma (LNCaP (PSMA+) xenografts; [2]): 3.8±1.3 %ID g^−1
- ex vivo uptake salivary glands (LNCaP (PSMA+) xenografts; [2]): 1.0±0.8 %ID g^−1
- ex vivo uptake small intestine (LNCaP (PSMA+) xenografts; [2]): 1.2±1.5 %ID g^−1
- ex vivo uptake spleen (LNCaP (PSMA+) xenografts; [2]): 1.0±0.2 %ID g^−1
- ex vivo uptake stomach (LNCaP (PSMA+) xenografts; [2]): 7.3±16.4 %ID g^−1
- ex vivo uptake tumor (LNCaP (PSMA+) xenografts; [2]): 2.8±0.8 %ID g^−1
- ex vivo uptake urine (LNCaP (PSMA+) xenografts; [2]): 644±627 %ID g^−1
- ex vivo uptake whole blood (LNCaP (PSMA+) xenografts; [2]): 1.8±0.6 %ID g^−1
- ex vivo uptake bone (LNCaP (PSMA+) xenografts; [3]): 0.2±0.1 %ID g^−1
- ex vivo uptake brain (LNCaP (PSMA+) xenografts; [3]): 0.1±0.0 %ID g^−1
- ex vivo uptake heart (LNCaP (PSMA+) xenografts; [3]): 0.6±0.4 %ID g^−1
- ex vivo uptake kidney (LNCaP (PSMA+) xenografts; [3]): 42.0±9.0 %ID g^−1
- ex vivo uptake large intestine (LNCaP (PSMA+) xenografts; [3]): 1.4±1.5 %ID g^−1
- ex vivo uptake liver (LNCaP (PSMA+) xenografts; [3]): 5.6±1.3 %ID g^−1
- ex vivo uptake lungs (LNCaP (PSMA+) xenografts; [3]): 1.3±0.5 %ID g^−1
- ex vivo uptake muscles (LNCaP (PSMA+) xenografts; [3]): 0.5±0.2 %ID g^−1
- ex vivo uptake pancreas (LNCaP (PSMA+) xenografts; [3]): 0.8±0.7 %ID g^−1
- ex vivo uptake plasma (LNCaP (PSMA+) xenografts; [3]): 0.9±5.2 %ID g^−1
- ex vivo uptake salivary glands (LNCaP (PSMA+) xenografts; [3]): 0.5±0.3 %ID g^−1
- ex vivo uptake small intestine (LNCaP (PSMA+) xenografts; [3]): 1.6±2.1 %ID g^−1
- ex vivo uptake spleen (LNCaP (PSMA+) xenografts; [3]): 5.8±3.4 %ID g^−1
- ex vivo uptake stomach (LNCaP (PSMA+) xenografts; [3]): 0.6±0.2 %ID g^−1
- ex vivo uptake tumor (LNCaP (PSMA+) xenografts; [3]): 11.8±4.2 %ID g^−1 and 11.7±4.2 %ID g^−1
- ex vivo uptake urine (LNCaP (PSMA+) xenografts; [3]): 314±420 %ID g^−1
- ex vivo uptake whole blood (LNCaP (PSMA+) xenografts; [3]): 1.6±1.3 %ID g^−1
Compound: O=C(O)CC[C@H](NC(=O)N[C@@H](CCCCNC(=O)c1ccc(-c2cn(CCOCCOCC[18F])nn2)cc1)C(=O)O)C(=O)O [[^18F]PSMA‐MIC01]
